Consider 24 molecules from patent US20230295131A1, “INHIBITORS OF RHO-ASSOCIATED COILED-COIL KINASE” (Angion Biomedica Corp., priority 2020, published 2023).

The target in experiment [1] is T1, ROCK1 (Homo sapiens, UniProt Q13464).
T1 construct: T7 phage fusion (kinase-tagged phage) or DNA tag for qPCR detection
The experiment is described as follows: ROCK1 kinase binding affinity, DiscoverX KINOMEscan KdELECT. The settings on record: 11-point 3-fold dilution. The method, then: (§1) 1. ROCK1 and ROCK2 kinase assays: The ROCK1 and ROCK2 kinase binding affinities of compounds in this disclosure were determined by DiscoverX's KINOMEscan™ KdELECT technology (https://www.discoverx.com/kinomescan-elect-kinase-screening-and-profiling-services): Kinase-tagged T7 phage strains were prepared in an E. coli host derived from the BL21 strain. E. coli were grown to log-phase and infected with T7 phage and incubated with shaking at 32° C. until lysis. The lysates were centrifuged and filtered to remove cell debris. The remaining kinases were produced in HEK-293 cells and subsequently tagged with DNA for qPCR detection. […] The liganded beads were blocked with excess biotin and washed with blocking buffer (SeaBlock (Pierce), 1% BSA, 0.05% Tween 20, 1 mM DTT) to remove unbound ligand and to reduce nonspecific binding. […] Kds were determined using an 11-point 3-fold compound dilution series with three DMSO control points. […] The compounds were then diluted directly into the assays such that the final concentration of DMSO was 0.9%. All reactions performed in polypropylene 384-well plate. Each was a final volume of 0.02 ml. […] The kinase concentration in the eluates was measured by qPCR.

Experiment [2] concerns the target T2, ROCK2 (Homo sapiens, UniProt O75116).
T2 construct: T7 phage fusion (kinase-tagged phage) or DNA tag for qPCR detection
Put plainly: ROCK2 kinase binding affinity, DiscoverX KINOMEscan KdELECT. The settings on record: for ROCK2 Selectivity: selectivity for ROCK2 over ROCK1 from Kd. How it is done:
as §1

The mark [3] stands for this setting: KINOMEscan KdELECT, 11-point 3-fold dilution, read-out: Kd (μM) ROCK2.

The structures appear in SMILES notation. Where two headings read alike, the source gives them in different places.

T2 sequence (O75116 whole entry, the tested form may be a part): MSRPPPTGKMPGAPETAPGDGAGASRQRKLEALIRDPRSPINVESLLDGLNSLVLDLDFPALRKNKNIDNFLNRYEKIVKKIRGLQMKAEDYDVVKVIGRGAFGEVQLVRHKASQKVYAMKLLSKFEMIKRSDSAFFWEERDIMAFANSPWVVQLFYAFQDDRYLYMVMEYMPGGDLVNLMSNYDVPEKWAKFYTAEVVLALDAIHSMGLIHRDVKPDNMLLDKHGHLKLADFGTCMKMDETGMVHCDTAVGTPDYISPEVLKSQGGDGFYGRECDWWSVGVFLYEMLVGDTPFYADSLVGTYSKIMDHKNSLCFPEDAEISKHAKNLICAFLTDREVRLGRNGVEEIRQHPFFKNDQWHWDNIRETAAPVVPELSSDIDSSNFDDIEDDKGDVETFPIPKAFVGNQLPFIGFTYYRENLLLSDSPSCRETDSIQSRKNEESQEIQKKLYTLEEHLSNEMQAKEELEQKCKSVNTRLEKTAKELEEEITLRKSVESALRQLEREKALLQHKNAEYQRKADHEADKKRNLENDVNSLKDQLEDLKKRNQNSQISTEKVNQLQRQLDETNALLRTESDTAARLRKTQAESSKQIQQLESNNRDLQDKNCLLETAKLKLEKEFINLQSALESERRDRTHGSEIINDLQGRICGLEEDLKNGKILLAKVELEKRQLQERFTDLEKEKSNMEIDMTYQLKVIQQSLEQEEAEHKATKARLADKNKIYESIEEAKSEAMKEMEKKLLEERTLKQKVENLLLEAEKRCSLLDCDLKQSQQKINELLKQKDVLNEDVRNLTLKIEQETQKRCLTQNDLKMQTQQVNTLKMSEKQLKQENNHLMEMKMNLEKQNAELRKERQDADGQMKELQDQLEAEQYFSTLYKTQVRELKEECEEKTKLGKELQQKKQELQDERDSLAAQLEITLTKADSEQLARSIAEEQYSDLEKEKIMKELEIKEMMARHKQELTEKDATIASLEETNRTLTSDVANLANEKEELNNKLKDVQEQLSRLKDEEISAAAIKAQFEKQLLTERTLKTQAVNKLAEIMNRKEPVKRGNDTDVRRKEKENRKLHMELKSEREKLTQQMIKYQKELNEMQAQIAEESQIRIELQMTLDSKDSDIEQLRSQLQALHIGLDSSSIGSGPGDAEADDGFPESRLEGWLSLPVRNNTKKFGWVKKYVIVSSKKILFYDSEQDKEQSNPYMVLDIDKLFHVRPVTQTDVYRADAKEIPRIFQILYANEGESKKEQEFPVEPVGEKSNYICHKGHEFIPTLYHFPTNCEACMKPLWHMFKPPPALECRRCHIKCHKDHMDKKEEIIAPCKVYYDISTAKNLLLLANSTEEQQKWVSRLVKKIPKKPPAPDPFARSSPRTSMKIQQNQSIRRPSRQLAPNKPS
T1 sequence (Q13464 whole entry, the tested form may be a part): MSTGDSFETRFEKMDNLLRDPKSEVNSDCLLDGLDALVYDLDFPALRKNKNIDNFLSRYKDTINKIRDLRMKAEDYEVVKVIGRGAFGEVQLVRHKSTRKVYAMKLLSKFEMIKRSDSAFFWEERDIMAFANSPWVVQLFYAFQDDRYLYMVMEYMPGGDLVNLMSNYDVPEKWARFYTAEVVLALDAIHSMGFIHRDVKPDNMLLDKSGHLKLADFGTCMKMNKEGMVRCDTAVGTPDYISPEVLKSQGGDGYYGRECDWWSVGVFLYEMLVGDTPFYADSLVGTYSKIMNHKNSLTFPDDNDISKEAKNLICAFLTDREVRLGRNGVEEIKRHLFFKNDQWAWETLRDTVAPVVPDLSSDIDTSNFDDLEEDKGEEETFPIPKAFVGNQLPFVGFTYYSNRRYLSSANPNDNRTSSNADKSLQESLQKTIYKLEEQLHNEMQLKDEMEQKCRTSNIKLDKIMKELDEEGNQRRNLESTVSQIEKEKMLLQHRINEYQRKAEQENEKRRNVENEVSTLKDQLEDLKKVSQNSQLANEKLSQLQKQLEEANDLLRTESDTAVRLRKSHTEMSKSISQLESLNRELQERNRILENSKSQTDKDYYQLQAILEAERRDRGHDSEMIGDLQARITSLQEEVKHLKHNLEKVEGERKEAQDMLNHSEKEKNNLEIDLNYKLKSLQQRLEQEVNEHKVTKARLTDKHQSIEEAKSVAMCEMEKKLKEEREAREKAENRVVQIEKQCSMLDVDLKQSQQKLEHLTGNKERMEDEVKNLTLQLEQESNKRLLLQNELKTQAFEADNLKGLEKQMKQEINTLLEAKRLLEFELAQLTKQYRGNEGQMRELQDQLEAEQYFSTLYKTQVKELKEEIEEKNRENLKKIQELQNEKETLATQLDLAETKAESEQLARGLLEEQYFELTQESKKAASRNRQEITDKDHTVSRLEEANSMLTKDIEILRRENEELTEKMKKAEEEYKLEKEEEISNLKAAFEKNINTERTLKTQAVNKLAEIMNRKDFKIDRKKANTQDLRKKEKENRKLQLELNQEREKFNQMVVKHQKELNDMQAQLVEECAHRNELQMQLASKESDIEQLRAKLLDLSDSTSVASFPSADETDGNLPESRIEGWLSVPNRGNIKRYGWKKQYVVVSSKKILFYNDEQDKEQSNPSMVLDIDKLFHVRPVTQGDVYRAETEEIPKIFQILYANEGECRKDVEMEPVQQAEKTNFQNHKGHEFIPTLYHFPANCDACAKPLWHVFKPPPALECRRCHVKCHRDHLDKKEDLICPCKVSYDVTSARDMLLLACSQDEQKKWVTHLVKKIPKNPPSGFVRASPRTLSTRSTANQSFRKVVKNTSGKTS

A word on the Kd: it is the constant that tells how readily two partners part at equilibrium. For the molecule `C(#Cc1ccnc(-c2ccnc(NCC3CCCO3)n2)n1)c1ccc2[nH]ncc2c1` (stereo not drawn) [Ex. 17, 4-((1H-Indazol-5-yl)ethynyl)-N-((tetrahydrofuran-2-yl)methyl)-[2,4′-bipyrimidin]-2′-amine], the figures for the Kd in experiment [1] and in experiment [2] (setting [3]) were 0.1 to 0.99 µM and less than 0.01 µM, respectively. Further, in experiment [2], the “ROCK2 Selectivity” value is recorded as “*** (151 to 500-fold selectivity for ROCK2)”.

As for `Fc1ccccc1CNc1nccc(-c2nccc(C#Cc3ccc4[nH]ncc4c3)n2)n1` [Ex. 15, 4-((1H-Indazol-5-yl)ethynyl)-N-(2-fluorobenzyl)-[2,4′-bipyrimidin]-2′-amine], the Kd was in the range of 10 to 100 µM in experiment [1] and 0.01 to 0.099 µM in experiment [2] (setting [3]). Further, the “ROCK2 Selectivity” value in experiment [2] is “*** (151 to 500-fold selectivity for ROCK2)”.

Consider `FC1(F)Oc2ccc(CNc3nccc(-c4nccc(C#Cc5ccc6[nH]ncc6c5)n4)n3)cc2O1` [Ex. 13, 4-((1H-Indazol-5-yl)ethynyl)-N-((2,2-difluorobenzo[d][1,3]dioxol-5-yl)methyl)-[2,4′-bipyrimidin]-2′-amine], for which the Kd is 10 to 100 µM in experiment [1] and 0.1 to 0.99 µM in experiment [2] (setting [3]). The “ROCK2 Selectivity” value in experiment [2] is “** (50 to 150-fold selectivity for ROCK2)”.

Consider `Fc1cc(C#Cc2ccnc(-c3ccnc(NCC4CCCO4)n3)n2)cc2cn[nH]c12` (stereo not drawn) [Ex. 49, 4-((7-Fluoro-1H-indazol-5-yl)ethynyl)-N-((tetrahydrofuran-2-yl)methyl)-[2,4′-bipyrimidin]-2′-amine], for which the figures for the Kd in experiment [1] and in experiment [2] (setting [3]) were 1 to 9.9 µM and less than 0.01 µM, respectively. In addition, in experiment [2], the “ROCK2 Selectivity” value was “*** (151 to 500-fold selectivity for ROCK2)”.

For the molecule `CNC(=O)CNc1nccc(-c2nccc(C#Cc3ccc4[nH]ncc4c3)n2)n1` [Ex. 55, 2-((4-((1H-Indazol-5-yl)ethynyl)-[2,4′-bipyrimidin]-2′-yl)amino)-N-methylacetamide], the Kd lay within 1 to 9.9 µM in experiment [1] and 0.01 to 0.099 µM in experiment [2] (setting [3]). In addition, the “ROCK2 Selectivity” value in experiment [2] was “** (50 to 150-fold selectivity for ROCK2)”.

`O=C(CNc1nccc(-c2nccc(C#Cc3ccc4[nH]ncc4c3)n2)n1)N1CC[C@H](O)C1` [Ex. 1, (S)-2-((4-((1H-Indazol-5-yl)ethynyl)-[2,4′-bipyrimidin]-2′-yl)amino)-1-(3-hydroxypyrrolidin-1-yl)ethanone]: the Kd in experiment [1] is 0.1 to 0.99 µM; in experiment [2] (setting [3]) it was less than 0.01 µM. Besides, in experiment [2], the “ROCK2 Selectivity” value is on record as “** (50 to 150-fold selectivity for ROCK2)”.

For `O=C(CNc1nccc(-c2nccc(C#Cc3ccc4[nH]ncc4c3)n2)n1)NC12CCC(CC1)C2` [Ex. 2, 2-((4-((1H-Indazol-5-yl)ethynyl)-[2,4′-bipyrimidin]-2′-yl)amino)-N-(bicyclo[2.2.1]heptan-1-yl)acetamide], the Kd in experiment [1] is 0.1 to 0.99 µM; in experiment [2] (setting [3]), less than 0.01 µM. For the same molecule, the “ROCK2 Selectivity” value in experiment [2] is listed as “*** (151 to 500-fold selectivity for ROCK2)”.

Regarding `O=C(O)[C@H]1CC[C@@H](Nc2nccc(-c3nccc(C#Cc4ccc5[nH]ncc5c4)n3)n2)CC1` [Ex. 92, (1s,4s)-4-((4-((1H-Indazol-5-yl)ethynyl)-[2,4′-bipyrimidin]-2′-yl)amino)cyclohexanecarboxylic acid], the Kd in experiment [1] lay within 0.1 to 0.99 µM; in experiment [2] (setting [3]), 0.01 to 0.099 µM. Also, in experiment [2], the “ROCK2 Selectivity” value was “* (<50-fold selectivity for ROCK2)”.

For `Fc1n[nH]c2ccc(C#Cc3ccnc(-c4ccnc(NCC5CCCO5)n4)n3)cc12` (stereo not drawn) [Ex. 50, 4-((3-Fluoro-1H-indazol-5-yl)ethynyl)-N-((tetrahydrofuran-2-yl)methyl)-[2,4′-bipyrimidin]-2′-amine], the Kd was 1 to 9.9 µM in experiment [1] and less than 0.01 µM in experiment [2] (setting [3]). Besides, the “ROCK2 Selectivity” value in experiment [2] is on record as “*** (151 to 500-fold selectivity for ROCK2)”.

On to `CC(C)(N)CNc1nccc(-c2nccc(C#Cc3ccc4[nH]ncc4c3)n2)n1` [Ex. 89, N1-(4-((1H-Indazol-5-yl)ethynyl)-[2,4′-bipyrimidin]-2′-yl)-2-methylpropane-1,2-diamine], for which the Kd was 1 to 9.9 µM in experiment [1] and 0.1 to 0.99 µM in experiment [2] (setting [3]). In addition, the “ROCK2 Selectivity” value in experiment [2] is “* (<50-fold selectivity for ROCK2)”.

For `O[C@H]1CC[C@H](Nc2nccc(-c3nccc(C#Cc4ccc5[nH]ncc5c4)n3)n2)CC1` [Ex. 63, (1r,4r)-4-((4-((1H-Indazol-5-yl)ethynyl)-[2,4′-bipyrimidin]-2′-yl)amino)cyclohexanol], the Kd in experiment [1] is 1 to 9.9 µM; in experiment [2] (setting [3]), less than 0.01 µM. In addition, in experiment [2], the “ROCK2 Selectivity” value is on record as “*** (151 to 500-fold selectivity for ROCK2)”.

Turning to `Cc1ccc(CNc2nccc(-c3nccc(C#Cc4ccc5[nH]ncc5c4)n3)n2)nc1` [Ex. 24, 4-((1H-Indazol-5-yl)ethynyl)-N-((5-methylpyridin-2-yl)methyl)-[2,4′-bipyrimidin]-2′-amine], the Kd was 0.1 to 0.99 µM in experiment [1] and less than 0.01 µM in experiment [2] (setting [3]). Moreover, the “ROCK2 Selectivity” value in experiment [2] is on record as “** (50 to 150-fold selectivity for ROCK2)”.

As to `Fc1cc(F)c(F)c(CNc2nccc(-c3nccc(C#Cc4ccc5[nH]ncc5c4)n3)n2)c1` [Ex. 37, 4-((1H-Indazol-5-yl)ethynyl)-N-(2,3,5-trifluorobenzyl)-[2,4′-bipyrimidin]-2′-amine], the Kd in experiment [1] lay in the range of 1 to 9.9 µM; in experiment [2] (setting [3]), 0.01 to 0.099 µM. Moreover, the “ROCK2 Selectivity” value in experiment [2] is listed as “*** (151 to 500-fold selectivity for ROCK2)”.

For `Fc1ccc(CCNc2nccc(-c3nccc(C#Cc4ccc5[nH]ncc5c4)n3)n2)nc1` [Ex. 39, 4-((1H-Indazol-5-yl)ethynyl)-N-(2-(5-fluoropyridin-2-yl)ethyl)-[2,4′-bipyrimidin]-2′-amine], the Kd in experiment [1] fell in the range of 1 to 9.9 µM; in experiment [2] (setting [3]), 0.01 to 0.099 µM. In addition, the “ROCK2 Selectivity” value in experiment [2] was “** (50 to 150-fold selectivity for ROCK2)”.

For the molecule `O[C@H]1CC[C@@H](Nc2nccc(-c3nccc(C#Cc4ccn5cnnc5c4)n3)n2)CC1` [Ex. 97, (1s,4s)-4-((4-([1,2,4]Triazolo[4,3-a]pyridin-7-ylethynyl)-[2,4′-bipyrimidin]-2′-yl)amino)cyclohexanol], the Kd in experiment [1] and in experiment [2] (setting [3]) was 10 to 100 µM in each case. Further, the “ROCK2 Selectivity” value in experiment [2] is on record as “* (<50-fold selectivity for ROCK2)”.

For the molecule `COc1ccccc1CNc1nccc(-c2nccc(C#Cc3ccc4[nH]ncc4c3)n2)n1` [Ex. 18, 4-((1H-Indazol-5-yl)ethynyl)-N-(2-methoxybenzyl)-[2,4′-bipyrimidin]-2′-amine], the results for the Kd in experiment [1] and in experiment [2] (setting [3]) were 1 to 9.9 µM and 0.01 to 0.099 µM, respectively. In experiment [2], the “ROCK2 Selectivity” value was “** (50 to 150-fold selectivity for ROCK2)”.

With `Fc1ncccc1CNc1nccc(-c2nccc(C#Cc3ccc4[nH]ncc4c3)n2)n1` [Ex. 6, 4-((1H-Indazol-5-yl)ethynyl)-N-((2-fluoropyridin-3-yl)methyl)-[2,4′-bipyrimidin]-2′-amine], the Kd in experiment [1] is 0.01 to 0.099 µM; in experiment [2] (setting [3]) it was less than 0.01 µM. Also, the “ROCK2 Selectivity” value in experiment [2] is recorded as “* (<50-fold selectivity for ROCK2)”.

Consider `COC(C)(C)CNc1nccc(-c2nccc(C#Cc3ccc4[nH]ncc4c3)n2)n1` [Ex. 81, 4-((1H-Indazol-5-yl)ethynyl)-N-(2-methoxy-2-methylpropyl)-[2,4′-bipyrimidin]-2′-amine], for which the figures for the Kd in experiment [1] and in experiment [2] (setting [3]) were 1 to 9.9 µM and 0.01 to 0.099 µM, respectively. In addition, the “ROCK2 Selectivity” value in experiment [2] was “** (50 to 150-fold selectivity for ROCK2)”.

The molecule `O[C@H]1CC[C@@H](Nc2nccc(-c3nccc(C#Cc4ccc5[nH]cnc5c4)n3)n2)CC1` [Ex. 95, (1s,4s)-4-((4-((1H-Benzo[d]imidazol-5-yl)ethynyl)-[2,4′-bipyrimidin]-2′-yl)amino)cyclohexanol] gave a Kd in experiment [1] of 10 to 100 µM. Moreover, in experiment [2], the Kd was 0.01 to 0.099 µM and the “ROCK2 Selectivity” value is given as “*** (151 to 500-fold selectivity for ROCK2)”.

Turning to `O=c1[nH]cccc1CNc1nccc(-c2nccc(C#Cc3ccc4[nH]ncc4c3)n2)n1` [Ex. 21, 3-(((4-((1H-Indazol-5-yl)ethynyl)-[2,4′-bipyrimidin]-2′-yl)amino)methyl)pyridin-2(1H)-one], the Kd in experiment [1] was in the range of 0.1 to 0.99 µM; in experiment [2] (setting [3]), 0.01 to 0.099 µM. Moreover, the “ROCK2 Selectivity” value in experiment [2] is listed as “** (50 to 150-fold selectivity for ROCK2)”.

On to `C(#Cc1ccnc(-c2ccnc(N[C@H]3CCOC3)n2)n1)c1ccc2[nH]ncc2c1` [Ex. 62, (S)-4-((1H-Indazol-5-yl)ethynyl)-N-(tetrahydrofuran-3-yl)-[2,4′-bipyrimidin]-2′-amine], for which the values for the Kd in experiment [1] and in experiment [2] (setting [3]) were 1 to 9.9 µM and less than 0.01 µM, respectively. The “ROCK2 Selectivity” value in experiment [2] was “*** (151 to 500-fold selectivity for ROCK2)”.

With `C(#Cc1ccnc(-c2ccnc(N[C@@H]3CCOC3)n2)n1)c1ccc2[nH]ncc2c1` [Ex. 59, (R)-4-((1H-Indazol-5-yl)ethynyl)-N-(tetrahydrofuran-3-yl)-[2,4′-bipyrimidin]-2′-amine], the Kd in experiment [1] is 1 to 9.9 µM; in experiment [2] (setting [3]), less than 0.01 µM. Further, the “ROCK2 Selectivity” value in experiment [2] is reported as “*** (151 to 500-fold selectivity for ROCK2)”.

Consider `Fc1cnc(CNc2nccc(-c3nccc(C#Cc4ccc5[nH]ncc5c4)n3)n2)c(F)c1` [Ex. 38, 4-((1H-Indazol-5-yl)ethynyl)-N-((3,5-difluoropyridin-2-yl)methyl)-[2,4′-bipyrimidin]-2′-amine], for which the values for the Kd in experiment [1] and in experiment [2] (setting [3]) were 0.1 to 0.99 µM and less than 0.01 µM, respectively. Besides, the “ROCK2 Selectivity” value in experiment [2] is listed as “** (50 to 150-fold selectivity for ROCK2)”.

As to `Fc1ccc(CNc2nccc(-c3nccc(C#Cc4ccc5[nH]ncc5c4)n3)n2)nc1` [Ex. 3, 4-((1H-Indazol-5-yl)ethynyl)-N-((5-fluoropyridin-2-yl)methyl)-[2,4′-bipyrimidin]-2′-amine], the Kd in experiment [1] is 1 to 9.9 µM; in experiment [2] (setting [3]), less than 0.01 µM. Further, the “ROCK2 Selectivity” value in experiment [2] is reported as “*** (151 to 500-fold selectivity for ROCK2)”.
